Values of other authors as cited in patent publication US5401490A, “Markers of tissue hypoxia” (priority 1989, dated 1995).

Assays:
[1] = cited from earlier work
hypoxic cell [2] = conditions: in vitro; cited from earlier work
EMT-6 cells = conditions: 50 μM comparison, previously determined value; cited from earlier work
hypoxic cell [3] = conditions: in vitro; cited from earlier work; remark: listed apart in the source
EMT-6 tumors = conditions: BALB/C mice; cited from earlier work
EMT-6 murine tumor cells = conditions: hypoxic in vitro; cited from earlier work
V-79 hamster cells = conditions: hypoxic in vitro; cited from earlier work

Structure (SMILES)	metabolic deiodination in vivo [1]	hypoxic cell toxicity compared with MISO (hypoxic cell [2])	sensitizer enhancement ratio (SER) (EMT-6 cells)	rates of binding compared with MISO (hypoxic cell [3])	binding to EMT-6 tumors in vivo (EMT-6 tumors)	binding to the macromolecular fraction (EMT-6 murine tumor cells)	binding to the macromolecular fraction (V-79 hamster cells)
O=[N+]([O-])c1nccn1C1OC(CI)C(O)C1O (centres unmarked) [IAZR, (1-5'-iodo-5'deoxyribofuranosyl)-2-nitroimidazole]	subject to metabolic deiodination	greater hypoxic cell toxicity	1.6	rates of binding than MISO			
COCC(O)Cn1ccnc1[N+](=O)[O-] (centres unmarked) [MISO, misonidazole]			1.2		selectively bound	selectively bound to the macromolecular fraction	selectively bound to the macromolecular fraction
